This test addresses recombinant human Nav1.7 (Homo sapiens (Human), UniProt Q15858). The experiment in a line: FRET-based membrane potential assay, recombinant human sodium channel Nav1.7. It counts as cell-based. Conditions: read-out: FRET-Membrane Potential Nav1.7 IC50. In a few lines: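 Channel activation used veratridine at its EC80, set by a dilution curve each experiment, together with Leiurus scorpion venom, added 3 min after compound. Membrane-potential ratio signals from FLIPR Tetra in HEPES-buffered HBSS were fitted to a four-parameter Hill equation for percent inhibition and IC50.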

Setting [1] is: HEK293 cells stably expressing recombinant human Nav1.7, veratridine + scorpion venom depolarization.

Structures are written as SMILES. Like-named read-outs stand apart in the source and are kept apart here.

By IC50 is commonly meant the midpoint of a concentration-inhibition curve.

Chain of recombinant human Nav1.7 (Q15858 whole entry): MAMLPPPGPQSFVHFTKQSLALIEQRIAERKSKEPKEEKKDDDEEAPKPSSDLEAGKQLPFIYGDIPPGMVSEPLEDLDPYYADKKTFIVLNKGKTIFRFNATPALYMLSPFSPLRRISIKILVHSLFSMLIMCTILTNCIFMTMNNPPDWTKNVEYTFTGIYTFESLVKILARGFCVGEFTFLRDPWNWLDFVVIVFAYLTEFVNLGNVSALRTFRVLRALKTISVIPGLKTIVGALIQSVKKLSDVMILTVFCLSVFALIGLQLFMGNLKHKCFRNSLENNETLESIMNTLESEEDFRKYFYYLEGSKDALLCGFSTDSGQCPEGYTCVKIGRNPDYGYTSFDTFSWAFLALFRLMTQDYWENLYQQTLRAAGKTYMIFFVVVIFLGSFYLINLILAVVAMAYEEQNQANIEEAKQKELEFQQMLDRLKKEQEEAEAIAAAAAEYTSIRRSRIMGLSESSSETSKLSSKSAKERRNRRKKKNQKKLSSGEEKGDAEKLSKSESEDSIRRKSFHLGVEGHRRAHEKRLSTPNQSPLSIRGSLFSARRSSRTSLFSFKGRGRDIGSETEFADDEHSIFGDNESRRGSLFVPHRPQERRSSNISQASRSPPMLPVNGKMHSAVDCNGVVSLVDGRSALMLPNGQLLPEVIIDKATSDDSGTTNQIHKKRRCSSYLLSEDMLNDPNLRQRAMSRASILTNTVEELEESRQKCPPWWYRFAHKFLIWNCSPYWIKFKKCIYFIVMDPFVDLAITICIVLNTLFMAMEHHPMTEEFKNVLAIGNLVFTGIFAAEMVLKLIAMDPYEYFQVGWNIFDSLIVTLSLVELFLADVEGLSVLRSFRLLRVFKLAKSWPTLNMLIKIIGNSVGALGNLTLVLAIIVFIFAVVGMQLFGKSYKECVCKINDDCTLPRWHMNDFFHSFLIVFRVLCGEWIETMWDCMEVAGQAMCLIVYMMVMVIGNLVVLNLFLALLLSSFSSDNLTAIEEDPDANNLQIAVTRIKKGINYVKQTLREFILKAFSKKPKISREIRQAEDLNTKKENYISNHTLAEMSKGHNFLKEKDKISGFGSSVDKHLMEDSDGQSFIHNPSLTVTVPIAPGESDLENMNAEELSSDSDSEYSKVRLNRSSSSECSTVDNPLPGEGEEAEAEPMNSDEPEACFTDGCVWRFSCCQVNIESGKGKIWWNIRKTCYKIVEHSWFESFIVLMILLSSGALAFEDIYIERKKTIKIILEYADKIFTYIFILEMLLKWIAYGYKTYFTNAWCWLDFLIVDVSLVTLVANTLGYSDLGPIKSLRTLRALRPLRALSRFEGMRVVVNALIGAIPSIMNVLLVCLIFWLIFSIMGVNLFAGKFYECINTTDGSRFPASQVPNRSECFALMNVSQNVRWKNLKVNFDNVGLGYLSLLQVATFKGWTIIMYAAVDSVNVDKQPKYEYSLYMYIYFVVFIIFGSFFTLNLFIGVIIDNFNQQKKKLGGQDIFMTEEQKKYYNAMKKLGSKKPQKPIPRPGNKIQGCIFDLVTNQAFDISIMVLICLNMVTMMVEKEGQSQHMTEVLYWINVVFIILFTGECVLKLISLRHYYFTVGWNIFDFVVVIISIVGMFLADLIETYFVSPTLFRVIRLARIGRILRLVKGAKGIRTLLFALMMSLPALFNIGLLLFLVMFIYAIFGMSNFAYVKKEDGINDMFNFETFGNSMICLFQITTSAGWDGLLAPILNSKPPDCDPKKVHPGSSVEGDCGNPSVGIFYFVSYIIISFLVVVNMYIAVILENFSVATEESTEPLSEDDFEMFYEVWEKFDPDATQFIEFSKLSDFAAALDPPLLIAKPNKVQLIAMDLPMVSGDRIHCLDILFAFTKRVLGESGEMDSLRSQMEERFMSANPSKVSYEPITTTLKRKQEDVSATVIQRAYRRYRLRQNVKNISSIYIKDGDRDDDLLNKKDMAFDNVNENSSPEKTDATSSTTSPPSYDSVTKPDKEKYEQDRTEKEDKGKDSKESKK

For `CC(C)(CO)NC(=O)c1ccc2cc(Oc3ccc(C#N)cc3)ccc2n1` [Example 124, 6-(4-cyanophenoxy)-N-(1-hydroxy-2-methylpropan-2-yl)quinoline-2-carboxamide], the IC50 is 2140 nM.

For the compound `O=C(NC1CCS(=O)(=O)CC1)c1ccc2cc(Oc3ccc(C(F)(F)F)nc3)ccc2n1` [Example 535, N-(1,1-dioxidotetrahydro-2H-thiopyran-4-yl)-6-{[6-(trifluoromethyl)pyridin-3-yl]oxy}quinoline-2-carboxamide], the IC50 under setting [1] was above 20000 nM.

For the compound `O=C(c1ccc2cc(Oc3ncc(C(F)(F)F)cc3Br)ccc2n1)N1CCNCC1` [Example 295, (6-{[3-bromo-5-(trifluoromethyl)pyridin-2-yl]oxy}quinolin-2-yl)(piperazin-1-yl)methanone], the IC50 was determined as 3200 nM.

On to `CS(=O)(=O)C1CCN(C(=O)c2ccc3cc(Oc4ccc(C(F)(F)F)cn4)ccc3n2)C1` (stereo not shown) [Example 287, [3-(methylsulfonyl)pyrrolidin-1-yl](6-{[5-(trifluoromethyl)pyridin-2-yl]oxy}quinolin-2-yl)methanone], for which the IC50 under setting [1] was 2810 nM.

For the compound `O=C(NCCC(=O)N1CCCCC1)c1ccc2cc(Oc3ccc(C(F)(F)F)cn3)ccc2n1` [Example 449, N-[3-oxo-3-(piperidin-1-yl)propyl]-6-{[5-(trifluoromethyl)pyridin-2-yl]oxy}quinoline-2-carboxamide], the IC50 was 789 nM.

Take `O=C(NCC1CNC1)c1ccc2cc(Oc3ccc(C(F)(F)F)cn3)ccc2n1` [Example 470, N-(azetidin-3-ylmethyl)-6-{[5-(trifluoromethyl)pyridin-2-yl]oxy}quinoline-2-carboxamide]: under setting [1], the IC50 was 6600 nM.

With `CC(C)[C@H]1CN(C(=O)c2ccc3cc(Oc4ccc(C(F)(F)F)cn4)ccc3n2)CCN1` [Example 274, [(3S)-3-isopropylpiperazin-1-yl](6-{[5-(trifluoromethyl)pyridin-2-yl]oxy}quinolin-2-yl)methanone], the IC50 under setting [1] was 304 nM.

In the case of `O=C(NCC(=O)N1CC[C@H](O)C1)c1ccc2cc(Oc3ccc(C(F)(F)F)cn3)ccc2n1` [Example 560, N-{2-[(3S)-3-hydroxypyrrolidin-1-yl]-2-oxoethyl}-6-{[5-(trifluoromethyl)pyridin-2-yl]oxy}quinoline-2-carboxamide], the IC50 was found to be 2870 nM.

For the compound `O=C(c1ccc2cc(Oc3ccc(C(F)(F)F)cn3)ccc2n1)N1CCN(S(=O)(=O)C2CCOCC2)CC1` [Example 383, [4-(tetrahydro-2H-pyran-4-ylsulfonyl)piperazin-1-yl](6-{[5-(trifluoromethyl)pyridin-2-yl]oxy}quinolin-2-yl)methanone], under setting [1], the IC50 is above 20000 nM.

`O=C(NC[C@@H]1CCCO1)c1ccc2cc(Oc3ccc(C(F)(F)F)cn3)ccc2n1` [Example 394, N-[(2S)-tetrahydrofuran-2-ylmethyl]-6-{[5-(trifluoromethyl)pyridin-2-yl]oxy}quinoline-2-carboxamide]: under setting [1], the IC50 amounted to 443 nM.

For the compound `O=C(c1ccc2cc(Oc3ccc(C(F)(F)F)cn3)ccc2n1)N1CCN2C[C@@H](F)C[C@H]2C1` [Example 359, [(7S,8aS)-7-fluorohexahydropyrrolo[1,2-a]pyrazin-2(1H)-yl](6-{[5-(trifluoromethyl)pyridin-2-yl]oxy}quinolin-2-yl)methanone], the IC50 came out at 4710 nM.

For `O=C(NCCN1CCSCC1)c1ccc2cc(Oc3ccc(C(F)(F)F)cn3)ccc2n1` [Example 365, N-[2-(thiomorpholin-4-yl)ethyl]-6-{[5-(trifluoromethyl)pyridin-2-yl]oxy}quinoline-2-carboxamide], the IC50 under setting [1] was 356 nM.

With `O=C(c1ccc2cc(Oc3ccc(C(F)(F)F)cn3)ccc2n1)N1CCNC2(CCC2)C1` [Example 418, 5,8-diazaspiro[3.5]non-8-yl(6-{[5-(trifluoromethyl)pyridin-2-yl]oxy}quinolin-2-yl)methanone], under setting [1], the half-maximal inhibitory concentration (IC50) was 539 nM.

Consider `O=C(NCC1(O)COC1)c1ccc2cc(Oc3ccc(C(F)(F)F)cn3)ccc2n1` [Example 412, N-[(3-hydroxyoxetan-3-yl)methyl]-6-{[5-(trifluoromethyl)pyridin-2-yl]oxy}quinoline-2-carboxamide], for which the IC50 came out at 513 nM.

On to `O=C(c1ccc2cc(Oc3ccc(C(F)(F)F)cn3)ccc2n1)N1CCc2[nH]cnc2C1` [Example 360, 1,4,6,7-tetrahydro-5H-imidazo[4,5-c]pyridin-5-yl(6-{[5-(trifluoromethyl)pyridin-2-yl]oxy}quinolin-2-yl)methanone], for which the IC50 was 1090 nM.

`CC(C)NC(=O)CN(C)C(=O)c1ccc2cc(Oc3ccc(C(F)(F)F)nc3)ccc2n1` [Example 525, N-[2-(isopropylamino)-2-oxoethyl]-N-methyl-6-{[6-(trifluoromethyl)pyridin-3-yl]oxy}quinoline-2-carboxamide]: the IC50 under setting [1] was 6650 nM.

In the case of `COc1cccc(CNC(=O)c2ccc3cc(Oc4ccc(C#N)cc4)ccc3n2)c1OC` [Example 105, 6-(4-cyanophenoxy)-N-(2,3-dimethoxybenzyl)quinoline-2-carboxamide], the IC50 under setting [1] was 7250 nM.

Consider `N#Cc1ccc(Oc2ccc3nc(C(=O)NCCc4cccs4)ccc3c2)cc1` [Example 93, 6-(4-cyanophenoxy)-N-[2-(2-thienyl)ethyl]quinoline-2-carboxamide], for which the IC50 under setting [1] came out at 1550 nM.

As to `O=C(c1ccc2cc(Oc3ccc(C(F)F)cn3)ccc2n1)N1CCNCC1C(F)F` (stereo not shown) [Example 430, [2-(difluoromethyl)piperazin-1-yl](6-{[5-(difluoromethyl)pyridin-2-yl]oxy}quinolin-2-yl)methanone], the IC50 came to 3450 nM.

As for `O=C(NC1COC1)c1ccc2cc(Oc3ccc(C(F)(F)F)nc3)ccc2n1` [Example 536, N-(oxetan-3-yl)-6-{[6-(trifluoromethyl)pyridin-3-yl]oxy}quinoline-2-carboxamide], the IC50 under setting [1] stood at 1150 nM.

Regarding `COCCNC(=O)CN(C)C(=O)c1ccc2cc(Oc3ccc(C(F)(F)F)cn3)ccc2n1` [Example 442, N-{2-[(2-methoxyethyl)amino]-2-oxoethyl}-N-methyl-6-{[5-(trifluoromethyl)pyridin-2-yl]oxy}quinoline-2-carboxamide], the IC50 under setting [1] worked out at 5520 nM.

For `O=C(c1ccc2cc(Oc3ccc(C(F)(F)F)cn3)ccc2n1)N1CCN(S(=O)(=O)C2CCS(=O)(=O)C2)CC1` (stereo not shown) [Example 386, {4[(1,1-dioxidotetrahydrothiophen-3-yl)sulfonyl]piperazin-1-yl}(6-{[5-(trifluoromethyl)pyridin-2-yl]oxy}quinolin-2-yl)methanone], under setting [1], the IC50 was above 20000 nM.

With `CN1CC(NC(=O)c2ccc3cc(Oc4ccc(C(F)(F)F)cn4)ccc3n2)CC1=O` (stereo not shown) [Example 448, N-(1-methyl-5-oxopyrrolidin-3-yl)-6-{[5-(trifluoromethyl)pyridin-2-yl]oxy}quinoline-2-carboxamide], the IC50 under setting [1] stood at 371 nM.

`N#Cc1ccc(Oc2ccc3nc(C(=O)NCCS(N)(=O)=O)ccc3c2)cc1` [Example 147, 6-(4-cyanophenoxy)-N-(2-sulfamoylethyl)quinoline-2-carboxamide]: the IC50 under setting [1] was determined as 4280 nM.

Consider `N#Cc1ccc(Oc2ccc3nc(C(=O)N[C@H]4CCC[C@@H](O)C4)ccc3c2)cc1` [Example 129, 6-(4-cyanophenoxy)-N-[(1S,3R)-3-hydroxycyclohexyl]quinoline-2-carboxamide], for which the IC50 under setting [1] stood at 2580 nM.

For the compound `CC1CN(C(=O)c2ccc3cc(Oc4ccc(C(F)(F)F)cn4)ccc3n2)CC(C)N1` (stereo not shown) [Example 552, (3,5-dimethylpiperazin-1-yl)(6-{[5-(trifluoromethyl)pyridin-2-yl]oxy}quinolin-2-yl)methanone], the IC50 under setting [1] is 615 nM.

For `COCCN(C)C(=O)c1ccc2cc(Oc3ccc(C(F)(F)F)cn3)ccc2n1` [Example 392, N-(2-methoxyethyl)-N-methyl-6-{[5-(trifluoromethyl)pyridin-2-yl]oxy}quinoline-2-carboxamide], the IC50 was 7960 nM.

Take `O=C(c1ccc2cc(Oc3ccc(C(F)(F)F)cn3)ccc2n1)N1CC=CC1` [Example 220, 2,5-dihydro-1H-pyrrol-1-yl(6-{[5-(trifluoromethyl)pyridin-2-yl]oxy}quinolin-2-yl)methanone]: the IC50 under setting [1] came to 2000 nM.

On to `O=C(c1ccc2cc(Oc3cccc(C(F)(F)F)n3)ccc2n1)N1CCNCC1` [Example 153, piperazin-1-yl(6-{[6-(trifluoromethyl)pyridin-2-yl]oxy}quinolin-2-yl)methanone], for which the IC50 came out at 3300 nM.

For `O=C(NCCc1ccccn1)c1ccc2cc(Oc3ccc(C(F)(F)F)cn3)ccc2n1` [Example 606, N-[2-(pyridin-2-yl)ethyl]-6-{[5-(trifluoromethyl)pyridin-2-yl]oxy}quinoline-2-carboxamide], the IC50 under setting [1] was determined as 856 nM.

`O=C(c1ccc2cc(Oc3ccc(C(F)(F)F)cn3)ccc2n1)N1CCN(c2ccccn2)CC1` [Example 182, [4-(pyridin-2-yl)piperazin-1-yl](6-{[5-(trifluoromethyl)pyridin-2-yl]oxy}quinolin-2-yl)methanone]: the IC50 under setting [1] was 690 nM.

For the compound `O=C(NC1CCOCC1)c1ccc2cc(Oc3ccc(C(F)(F)F)cn3)ccc2n1` [Example 327, N-(tetrahydro-2H-pyran-4-yl)-6-{[5-(trifluoromethyl)pyridin-2-yl]oxy}quinoline-2-carboxamide], the IC50 under setting [1] turned out to be 557 nM.

For the compound `CN(C)C(=O)N1CCN(C(=O)c2ccc3cc(Oc4ccc(C(F)(F)F)cn4)ccc3n2)CC1` [Example 187, N,N-dimethyl-4-[(6-{[5-(trifluoromethyl)pyridin-2-yl]oxy}quinolin-2-yl)carbonyl]piperazine-1-carboxamide], the IC50 under setting [1] was above 20000 nM.

Regarding `O=C(NCC1COCCN1Cc1ccccc1)c1ccc2cc(Oc3ccc(C(F)(F)F)cn3)ccc2n1` (stereo not shown) [Example 361, N-[(4-benzylmorpholin-3-yl)methyl]-6-{[5-(trifluoromethyl)pyridin-2-yl]oxy}quinoline-2-carboxamide], the IC50 under setting [1] amounted to 2880 nM.

The record behind these values is patent US9452986B2, “6-heteroaryloxy- or 6-aryloxy-quinoline-2-carboxamides and method of use” (AbbVie Inc., priority 2014, dated 2016).
